Assay results reported in PubChem BioAssay AID2060606 (Molecular Pharmacology Branch, DTP, NCI, 2025).

System: 922993-354-T-J3-PDC complex spheroids, viability, % test/control
Test: Anticancer human tumor 922993-354-T-J3-PDC patient-derived endometrial carcinoma cell line growth inhibition [CLK]
Settings: for IC50: curve of first compound; for viability, T/C: stronger effect = lower value
From the text: A high-throughput screen of multi-cell type tumor spheroids was designed to identify active combinations of […] and targeted small molecules. Complex spheroids include a stromal component modeled by human endothelial cells (HUVEC) and fibroblasts modeled by human mesenchymal stem cells (MSCs). The concentration ranges selected for each drug and investigational agent were based upon clinically achievable concentrations if the clinical Cmax of the agent was known.
Compounds. The drugs and investigational agents: cirtuvivint (SM08502; NSC835563), CC-671 (NSC850746), vemurafenib (NSC761431), tapotoclax (NSC804041), sotorasib (NSC818433), adagrasib (NSC831453), MRTX-1133 (NSC836407), BAY2416964 (NSC825713), copanlisib (NSC816437), inavolisib (NSC800729), abemaciclib (NSC768073), osimertinib (NSC779217), entinostat (NSC756642), eltanexor (KPT-8602, NSC794443), venetoclax (NSC766270), ceralasertib (NSC777638), bortezomib (NSC756655), olaparib (NSC753686), talazoparib (NSC767125), alisertib (NSC759677), peposertib (NSC802822), gemcitabine (NSC613327), 5-fluorouracil (NSC19893), SN-38 (NSC673596), oxaliplatin (NSC266046), paclitaxel (NSC125973), and doxorubicin (NSC123127), were obtained from the National Cancer Institute (NCI) Developmental Therapeutics Program Chemical Repository. The FDA-approved anticancer drug set is available from the Developmental Therapeutics Program at https://dtp.cancer.gov/organization/dscb/obtaining/available plates.htm. […] The stock solutions were prepared in dimethyl sulfoxide (DMSO, Sigma-Aldrich, St. Louis, MO, cat. D2650), except for the platinum complexes which were prepared in saline (Quality Biological, Gaithersburg, MD, cat. 114-055-101), at 800-fold the tested concentration and stored at -70 degrees C prior to their use. All drugs and investigational agents were tested over a range starting from a high concentration at or near the clinical Cmax and decreasing in half-log increments. If the clinical Cmax for an agent had not been determined, the highest concentration tested was 10 microM.
Cell Culture. All cells were maintained in an incubator at 37 degrees C and 5% CO2 with 95% humidity. The PDC lines were cultured according to standard operating procedures established by the NCI PDMR. Briefly, all PDCs were thawed and cultured in Matrigel-coated flasks prepared with a working solution of 1X Ham's F-12 nutrient mix, without supplementation (Invitrogen, Waltham, MA, cat. 11765054), 100 U/mL penicillin-streptomycin (Invitrogen, cat. 15140122), and 2.5% Matrigel (Corning Inc., Corning, NY, cat. 354248) for the first three passages. The 947758-054-R-J2-PDC line was cultured in 6B/Colon 1A media, which includes advanced DMEM/F-12 (Thermo Fisher Scientific, cat. 12634028), 10 mM HEPES (Thermo Fisher Scientific, cat. 15630080), 1X GlutaMAX supplement (Thermo Fisher Scientific, cat. 35050061), 0.1 mg/mL primocin (InvivoGen, cat. ant-pm-2), 10% defined fetal bovine serum, heat inactivated (HyClone Laboratories Inc., cat. SH30070.03HI), 1.25 mM N-Acetyl-L-cysteine (Sigma-Aldrich, cat. A9165), 10 mM nicotinamide (Sigma-Aldrich, cat. N0636), 1X B-27 supplement (Thermo Fisher Scientific, cat. 17504044), 1X N-2 supplement (Thermo Fisher Scientific, cat. 17502048), and 10 microM Y-27632 dihydrochloride (Tocris Bioscience, cat. 1254). The 876862-298-R-J1-PDC was cultured in 6E media, which includes all 6B/Colon 1A media components plus 50% L-WRN conditioned media (ATCC, cat. CRL-3276), 50 ng/mL recombinant human EGF recombinant protein (hEGF; Thermo Fisher Scientific, cat. PHG0311), 10 ng/mL recombinant human fibroblast growth factor 10 (hGFG-10; PeproTech, cat. 100-26), 1 ng/mL recombinant human fibroblast growth factor 2 (hFGF-2; PeproTech, cat. 100-18B), and 1 µM prostaglandin E2 (PGE2; Tocris, cat. 2296). The 227483-062-R1-J1-PDC line was cultured in Panc media, containing all 6E components except hFGF-2, with the addition of 500 nM SB-431542 (Selleckchem, cat. S1067) and 10 nM gastrin (Tocris, cat. 3006). […]

[1] = second compound 0.0316 µM, first compound 0.0316 µM
[2] = second compound 0.0316 µM, first compound 0.1 µM
[3] = second compound 0.0316 µM, first compound 0.316 µM
[4] = second compound 0.0316 µM, first compound 1 µM
[5] = second compound 0.0316 µM, first compound 3.16 µM
[6] = second compound 0.0316 µM, first compound 10 µM
[7] = second compound 0.1 µM, first compound 0.0316 µM
[8] = second compound 0.1 µM, first compound 0.1 µM
[9] = second compound 0.1 µM, first compound 0.316 µM
[10] = second compound 0.1 µM, first compound 1 µM
[11] = second compound 0.1 µM, first compound 3.16 µM
[12] = second compound 0.1 µM, first compound 10 µM
[13] = second compound 0.316 µM, first compound 0.0316 µM
[14] = second compound 0.316 µM, first compound 0.1 µM
[15] = second compound 0.316 µM, first compound 0.316 µM
[16] = second compound 0.316 µM, first compound 1 µM
[17] = second compound 0.316 µM, first compound 3.16 µM
[18] = second compound 0.316 µM, first compound 10 µM
[19] = second compound 1 µM, first compound 0.0316 µM
[20] = second compound 1 µM, first compound 0.1 µM
[21] = second compound 1 µM, first compound 0.316 µM
[22] = second compound 1 µM, first compound 1 µM
[23] = second compound 1 µM, first compound 3.16 µM
[24] = second compound 1 µM, first compound 10 µM
[25] = second compound 3.16 µM, first compound 0.0316 µM
[26] = second compound 3.16 µM, first compound 0.1 µM
[27] = second compound 3.16 µM, first compound 0.316 µM
[28] = second compound 3.16 µM, first compound 1 µM
[29] = second compound 3.16 µM, first compound 3.16 µM
[30] = second compound 3.16 µM, first compound 10 µM
[31] = second compound 10 µM, first compound 0.0316 µM
[32] = second compound 10 µM, first compound 0.1 µM
[33] = second compound 10 µM, first compound 0.316 µM
[34] = second compound 10 µM, first compound 1 µM
[35] = second compound 10 µM, first compound 3.16 µM
[36] = second compound 10 µM, first compound 10 µM
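Further: spheroids exposed to the agents for 7 days before readout.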

C#Cc1c(F)ccc2cc(O)cc(-c3ncc4c(N5CC6CCC(C5)N6)nc(OCC56CCCN5CC(F)C6)nc4c3F)c12 (centres undefined) + CN1CCN(c2cc(C(=O)Nc3cc4cc(-c5cnn(C)c5)ccc4cn3)ccn2)CC1
IC50 (second compound 0.0316 µM): > 10000 nM | IC50 (second compound 0.1 µM): > 10000 nM | IC50 (second compound 0.316 µM): 56.8 nM | IC50 (second compound 1 µM): < 31.6 nM | IC50 (second compound 3.16 µM): < 31.6 nM | IC50 (second compound 10 µM): < 31.6 nM | viability, T/C [1]: 123% | viability, T/C [2]: 113% | viability, T/C [3]: 122% | viability, T/C [4]: 107% | viability, T/C [5]: 111% | viability, T/C [6]: 93.3% | viability, T/C [7]: 99.5% | viability, T/C [8]: 105% | viability, T/C [9]: 91.9% | viability, T/C [10]: 92.4% | viability, T/C [11]: 103% | viability, T/C [12]: 88% | viability, T/C [13]: 57% | viability, T/C [14]: 47.9% | viability, T/C [15]: 38.6% | viability, T/C [16]: 42.1% | viability, T/C [17]: 41.4% | viability, T/C [18]: 41.3% | viability, T/C [19]: 0.17% | viability, T/C [20]: 0.42% | viability, T/C [21]: 1.47% | viability, T/C [22]: 0.44% | viability, T/C [23]: 0.92% | viability, T/C [24]: 0.14% | viability, T/C [25]: 0.14% | viability, T/C [26]: 0.2% | viability, T/C [27]: 0.11% | viability, T/C [28]: 0.11% | viability, T/C [29]: 2.16% | viability, T/C [30]: 2.87% | viability, T/C [31]: 0.88% | viability, T/C [32]: 0.85% | viability, T/C [33]: 1.6% | viability, T/C [34]: 0.15% | viability, T/C [35]: 2.52% | viability, T/C [36]: 3.71%

CC(CO)NC(=O)c1cc(-c2ccc(Cl)cc2)nn(-c2cnn(C)c2)c1=O (centres undefined) + CN1CCN(c2cc(C(=O)Nc3cc4cc(-c5cnn(C)c5)ccc4cn3)ccn2)CC1
IC50 (second compound 0.0316 µM): > 10000 nM | IC50 (second compound 0.1 µM): > 10000 nM | IC50 (second compound 0.316 µM): < 31.6 nM | IC50 (second compound 1 µM): < 31.6 nM | IC50 (second compound 3.16 µM): < 31.6 nM | IC50 (second compound 10 µM): < 31.6 nM | viability, T/C [1]: 119% | viability, T/C [2]: 98.2% | viability, T/C [3]: 93.1% | viability, T/C [4]: 98% | viability, T/C [5]: 84.8% | viability, T/C [6]: 96% | viability, T/C [7]: 95.2% | viability, T/C [8]: 77.1% | viability, T/C [9]: 80.8% | viability, T/C [10]: 69.5% | viability, T/C [11]: 77.2% | viability, T/C [12]: 72.1% | viability, T/C [13]: 47.6% | viability, T/C [14]: 49.6% | viability, T/C [15]: 40% | viability, T/C [16]: 33.6% | viability, T/C [17]: 35.3% | viability, T/C [18]: 35.9% | viability, T/C [19]: 0.14% | viability, T/C [20]: 0.16% | viability, T/C [21]: 0.16% | viability, T/C [22]: 0.12% | viability, T/C [23]: 0.98% | viability, T/C [24]: 1.3% | viability, T/C [25]: 0.15% | viability, T/C [26]: 0.63% | viability, T/C [27]: 0.87% | viability, T/C [28]: 1.29% | viability, T/C [29]: 1.41% | viability, T/C [30]: 0.14% | viability, T/C [31]: 0.2% | viability, T/C [32]: 0.21% | viability, T/C [33]: 2% | viability, T/C [34]: 0.26% | viability, T/C [35]: 0.7% | viability, T/C [36]: 1.23%
